Reference: paper PMC9861162 (Pharmaceuticals, 2022)
“And” between values parts separate entries of the source, which are not always exact repeats. Equal values may be shown once. “Also recorded” adds a separate entry of the source. Read-outs that look alike come from different tables or passages of the source.

Assays:
[1] = test system: CYP3A4; assay: clinical DDI prediction, static (IVIVE) and dynamic (PBPK) models, CYP3A4; conditions: for FDA Classification as CYP inhibitor: higher of static and dynamic AUCR; for R1: reversible inhibition
Excerpt: (§1) The Ki input values were estimated from the ratio IC50/2. Since the IC50 experiments were designed considering the substrate concentration equal to Km, the simplification of Ki as IC50/2 was considered for a competitive inhibition reaction.
(§2) The following Equation (4) was considered for the potential DDI evaluation:(4) AUCR=AUCwith inhibitor/AUCwithout inhibitor where AUCR is the area under the curve ratio, AUCwith inhibitor is AUC in the presence of the inhibitor, and AUCwithout inhibitor is AUC in the absence of the inhibitor.

[2] = dogs, observed, ref Palo et al. [7], cited from earlier work
[3] = molecular target: CYP2C19 (Homo sapiens, UniProt P33261); assay: clinical DDI prediction, static (IVIVE) and dynamic (PBPK) models, CYP2C19
CYP2C19, sequence (P33261 whole entry): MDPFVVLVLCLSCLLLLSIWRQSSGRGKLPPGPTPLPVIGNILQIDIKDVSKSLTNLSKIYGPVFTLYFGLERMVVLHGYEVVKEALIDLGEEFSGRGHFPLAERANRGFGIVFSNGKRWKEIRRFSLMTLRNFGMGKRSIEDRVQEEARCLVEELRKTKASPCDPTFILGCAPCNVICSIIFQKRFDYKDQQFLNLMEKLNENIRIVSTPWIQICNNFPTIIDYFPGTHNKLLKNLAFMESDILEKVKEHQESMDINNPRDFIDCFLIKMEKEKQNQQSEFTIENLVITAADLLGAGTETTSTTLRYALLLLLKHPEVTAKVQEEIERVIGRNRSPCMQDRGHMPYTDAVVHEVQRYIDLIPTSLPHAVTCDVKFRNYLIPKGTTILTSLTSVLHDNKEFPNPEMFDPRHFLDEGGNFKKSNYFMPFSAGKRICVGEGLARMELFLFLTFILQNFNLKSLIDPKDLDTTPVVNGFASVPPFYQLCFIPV
Excerpt: as §1, §2

[4] = test system: tinea cruris; conditions: topical treatment of tinea cruris; ref [4]; cited from earlier work
[5] = design: method as in Antunes et al. [14]; conditions: dog plasma; ref Antunes et al. [14]; cited from earlier work
[6] = test system: pityriasis versicolor; conditions: ref [5]; cited from earlier work
[7] = molecular target: T1, CYP2A6 (Homo sapiens, UniProt P11509); assay: in vitro CYP450 metabolism inhibition assay in human liver microsomes, CYP2A6 (coumarin); conditions: microsomes
T1 sequence (P11509 1-494): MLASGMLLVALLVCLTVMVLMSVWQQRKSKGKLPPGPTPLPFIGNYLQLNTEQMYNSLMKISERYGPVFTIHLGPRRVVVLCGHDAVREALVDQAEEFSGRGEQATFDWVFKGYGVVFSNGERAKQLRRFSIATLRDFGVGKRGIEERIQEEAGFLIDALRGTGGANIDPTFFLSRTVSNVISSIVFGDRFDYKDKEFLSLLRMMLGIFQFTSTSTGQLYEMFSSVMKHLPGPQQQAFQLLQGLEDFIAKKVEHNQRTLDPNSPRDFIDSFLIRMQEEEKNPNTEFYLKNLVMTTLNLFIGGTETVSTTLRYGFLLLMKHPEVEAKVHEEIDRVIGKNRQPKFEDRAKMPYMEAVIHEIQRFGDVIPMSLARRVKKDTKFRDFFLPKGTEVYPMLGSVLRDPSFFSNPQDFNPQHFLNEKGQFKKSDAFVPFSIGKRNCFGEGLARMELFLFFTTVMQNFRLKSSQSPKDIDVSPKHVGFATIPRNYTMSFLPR
Protocol: The incubation conditions employed for each CYP450 isoform were performed, as previously described.
Buffer solution (0.1 mol/L aqueous phosphate buffer, pH 7.4, 69 µL), NADPH-regenerating solutions (10 µL solution A: 26 mmol/L NADP+, 66 mmol/L glucose-6-phosphate, and 66 mmol/L MgCl2; 2 µL solution B: 40 U/mL glucose-6-phosphate dehydrogenase in 5 mmol/L sodium citrate), and deionized water (69 µL) were added, in a total volume of 150 μL. The tubes were vortex-mixed and preincubated with continuous gentle shaking for 5 min at 37 °C in a shaking water bath. Reactions were initiated by the addition of 50 µL of HLM solution in the tubes which were gently mixed by hand and incubated with continuous gentle shaking at 37 °C. Aliquots of 200 µL ice-cold solvent (Table 1) containing IS (1 µg/mL) were added. […] The supernatants were transferred to glass autosampler vials and submitted to LC-MS/MS analysis (5 µL injection volume) to monitor the substrate metabolite formation.

[8] = test system: interdigital tinea pedis; conditions: ref [3]; cited from earlier work
[9] = design: method as in Antunes et al. [14]; conditions: ref Antunes et al. [14], cited from earlier work
[10] = all trials; ref [3],[4],[5]; cited from earlier work
[11] = molecular target: CYP2D6 (Homo sapiens, UniProt P10635)
CYP2D6, sequence (P10635 whole entry): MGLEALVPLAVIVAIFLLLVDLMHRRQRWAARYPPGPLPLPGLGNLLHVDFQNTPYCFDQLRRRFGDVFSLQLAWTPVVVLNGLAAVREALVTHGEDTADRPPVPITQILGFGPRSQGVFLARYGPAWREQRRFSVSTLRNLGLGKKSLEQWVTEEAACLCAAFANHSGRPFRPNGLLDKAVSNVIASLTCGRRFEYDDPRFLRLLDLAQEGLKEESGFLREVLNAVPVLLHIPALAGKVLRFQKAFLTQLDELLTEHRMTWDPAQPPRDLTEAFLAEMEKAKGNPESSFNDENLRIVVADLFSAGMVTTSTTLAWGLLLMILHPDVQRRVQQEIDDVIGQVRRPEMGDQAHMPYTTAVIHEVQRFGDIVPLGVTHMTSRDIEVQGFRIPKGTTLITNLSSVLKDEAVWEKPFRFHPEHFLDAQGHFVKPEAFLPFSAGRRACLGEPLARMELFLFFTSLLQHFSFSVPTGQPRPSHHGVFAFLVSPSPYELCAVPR
Excerpt: as §1, §2

[12] = molecular target: T2, CYP2C8 (Homo sapiens, UniProt P10632)
T2 sequence (P10632 1-490): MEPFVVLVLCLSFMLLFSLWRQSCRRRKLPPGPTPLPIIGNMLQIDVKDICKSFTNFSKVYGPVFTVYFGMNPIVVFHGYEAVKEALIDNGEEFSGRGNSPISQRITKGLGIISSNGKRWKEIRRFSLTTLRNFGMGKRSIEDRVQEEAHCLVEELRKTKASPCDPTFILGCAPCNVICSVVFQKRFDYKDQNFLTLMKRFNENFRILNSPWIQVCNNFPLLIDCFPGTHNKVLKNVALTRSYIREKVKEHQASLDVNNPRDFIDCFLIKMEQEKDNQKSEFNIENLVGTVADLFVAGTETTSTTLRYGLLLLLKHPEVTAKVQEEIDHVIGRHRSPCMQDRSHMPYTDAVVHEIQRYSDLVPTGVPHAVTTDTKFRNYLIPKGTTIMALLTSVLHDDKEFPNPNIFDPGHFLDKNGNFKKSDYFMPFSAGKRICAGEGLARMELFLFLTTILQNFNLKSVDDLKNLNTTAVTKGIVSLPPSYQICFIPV
Excerpt: as §1, §2

[13] = molecular target: CYP2C9 (Homo sapiens, UniProt P11712)
CYP2C9, sequence (P11712 whole entry): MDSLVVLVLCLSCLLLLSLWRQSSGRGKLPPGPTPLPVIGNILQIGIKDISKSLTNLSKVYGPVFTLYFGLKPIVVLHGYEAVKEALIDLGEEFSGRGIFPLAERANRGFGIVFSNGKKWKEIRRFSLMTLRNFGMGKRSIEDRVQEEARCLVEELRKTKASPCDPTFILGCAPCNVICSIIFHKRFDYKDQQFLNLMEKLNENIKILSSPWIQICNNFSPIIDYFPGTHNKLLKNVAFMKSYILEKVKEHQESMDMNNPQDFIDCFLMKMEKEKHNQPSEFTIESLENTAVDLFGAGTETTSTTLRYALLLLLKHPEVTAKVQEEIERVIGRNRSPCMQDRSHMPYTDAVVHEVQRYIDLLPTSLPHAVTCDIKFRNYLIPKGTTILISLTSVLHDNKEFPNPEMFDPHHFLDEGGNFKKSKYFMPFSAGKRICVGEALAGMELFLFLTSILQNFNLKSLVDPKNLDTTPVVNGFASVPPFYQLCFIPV
Excerpt: as §1, §2

FC(F)(F)c1ccc(COC(Cn2ccnc2)c2ccc(Cl)cc2Cl)cc1 (stereo not shown) [dapaconazole, Dapaconazole]
DDI potential from Ki and R1 values ([1]; CYP3A): high potential | FDA Classification as CYP inhibitor ([1]; CYP3A4, substrate midazolam): Strong (AUCR ≥ 5: strong inhibitor) | FDA Classification as CYP inhibitor ([1]; CYP3A4, substrate nifedipine): Strong (AUCR ≥ 5: strong inhibitor) | FDA Classification as CYP inhibitor ([1]; CYP3A overall): strong inhibitor; also recorded: moderate to strong inhibition | R1 ([1]; substrate midazolam): 98.26 | R1 ([1]; substrate nifedipine): 25.70 | AUC0-t ([2]; intravenous 1 mg/kg): 255.0 ng·h/mL | CL ([2]; intravenous 1 mg/kg): 700.0 mL/min | Cmax ([2]; intravenous 1 mg/kg): 373.2 ng/mL | t1/2 Terminal ([2]; intravenous 1 mg/kg): 2.1 h | AUC0-t ([2]; intravenous 2 mg/kg): 779.9 ng·h/mL | CL ([2]; intravenous 2 mg/kg): 591.7 mL/min | Cmax ([2]; intravenous 2 mg/kg): 1444.7 ng/mL | t1/2 Terminal ([2]; intravenous 2 mg/kg): 2.5 h | AUC0-t ([2]; intravenous 20 mg/kg): 4780.1 ng·h/mL | CL ([2]; intravenous 20 mg/kg): 700.0 mL/min | Cmax ([2]; intravenous 20 mg/kg): 4708.3 ng/mL | t1/2 Terminal ([2]; intravenous 20 mg/kg): 2.3 h | DDI potential from Ki and R1 values [3]: high potential | R1 ([3]; reversible inhibition, substrate S-mephenytoin): 15.14 | efficacy compared with miconazole [4]: noninferior efficacy | Unbound fraction [5]: 0.037 | efficacy compared with ketoconazole [6]: noninferior efficacy | IC50 [7]: 20.7 µM | efficacy compared with ketoconazole [8]: noninferior efficacy | fu,inc ([9]; dog liver microsome incubation): 0.97 | CL int. mic. ([9]; dog liver microsomes): 257.97 µL/min/mg and 258 µL/min/mg | safety profile [10]: good safety profile | DDI potential from Ki and R1 values [11]: high potential | R1 [11]: 1.86 | DDI potential from Ki and R1 values [12]: low potential | R1 [12]: 1.01 | DDI potential from Ki and R1 values [13]: high potential | R1 [13]: 4.43
